Source: US7741323B2, “Indene derivatives and process for the preparation thereof” (Korea Research Institute of Chemical Technology, priority 2004, dated 2010)

Legend:
human PPARγ = target: T1, human PPARγ (Homo sapiens, UniProt P37231); assay: PPARγ activation test (GAL-4/luciferase reporter in NIH/3T3 cell); format: cell-based; conditions: GAL-4/human PPARγ LBD luciferase reporter, 24 hrs incubation
T1 construct: expressed in transfected cells; host or cells: NIH/3T3 cells (mouse fibroblasts)
T1 sequence (P37231 238-503 limits assumed): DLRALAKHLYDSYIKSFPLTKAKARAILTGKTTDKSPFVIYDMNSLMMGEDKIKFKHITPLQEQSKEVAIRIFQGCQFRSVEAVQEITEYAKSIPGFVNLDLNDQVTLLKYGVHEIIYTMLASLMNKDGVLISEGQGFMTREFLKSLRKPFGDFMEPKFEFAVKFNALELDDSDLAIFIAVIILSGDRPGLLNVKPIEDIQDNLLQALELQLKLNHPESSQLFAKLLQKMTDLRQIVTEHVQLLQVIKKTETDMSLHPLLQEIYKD
Protocol: The activity for PPARγ activation was examined as follows.
The vector fused with the ligand binding domain of a human PPARγ gene and the DNA binding site of a yeast GAL-4 gene, and luciferase reporter vector were simultaneously transfected in NIH/3T3 cell. The cells were cultured for 24 hrs. The solution containing the cells at a concentration of 2×10^4 cells/well was placed on a 96-well plate. Then, each of the test compounds of the present invention or the control group without test compounds was added thereto. After incubating for 24 hrs, the cells were subjected to lysis.

[1] = Adverse side effects check (weight, heart weight, liver weight, GPT/GOT) in high fat diet C57/BL6J mice; format: in vivo; conditions: for GOT / GPT / Heart Weight / Liver Weight / Weight: high fat diet C57/BL6J mice, oral administration for 14 days
Protocol: To check possible adverse side effects caused by the administration of the compound, the weight, heart weight and liver weight of each mouse were measured. GPT and GOT values were also calculated by employing a kit available in the market.

ob/ob mice = assay: Effectiveness in lowering blood glucose level in ob/ob mice; format: in vivo
Protocol: The resulting solution was intraperitoneally administered to the mice at a dose of 50 mg/kg, once a day for 5 days, or orally administered to the mice, at a dose of 100 mg/kg, twice a day for 14 days. Days 1, 3 and 5 were selected for intraperitoneal administration, and days 5, 10 and 14, for oral administration, to collect blood samples for measuring the blood glucose levels. […] Upon the completion of the oral administration for 14 days, the mice were fasted for 16 hrs to perform OGTT (Oral Glucose Tolerance Test) to determine the changes in insulin sensitivity induced by the oral administration. After administrating glucose to the mice at a dose of 2 g/kg orally, blood samples were collected at 0, 15, 30 60 and 120 minutes to measure blood glucose levels.

C57/BL6J mice = assay: Suppression of blood glucose and insulin levels in high fat diet C57/BL6J mice; format: in vivo
Text: Days 1, 3 and 5 were selected for intraperitoneal administration, and days 5, 10 and 14, for oral administration, to collect blood samples for measuring the blood glucose levels. […] Upon the completion of the oral administration for 14 days, the mice were fasted for 16 hrs to perform OGTT (Oral Glucose Tolerance Test) to determine the changes in insulin sensitivity induced by the oral administration. After administrating glucose to the mice at a dose of 2 g/kg orally, blood samples were collected at 0, 15, 30 60 and 120 minutes to measure blood glucose levels.
The extents of suppression of blood glucose and insulin levels were measured as mentioned above. To check possible adverse side effects caused by the administration of the compound, the weight, heart weight and liver weight of each mouse were measured. GPT and GOT values were also calculated by employing a kit available in the market.

[2] = high fat diet C57/BL6J mice, after 14 days oral administration
[3] = high fat diet C57/BL6J mice, oral administration once a day for 14 days

Molecule	EC50 (human PPARγ) [nM]	melting point [°C]	also measured
CCOC(=O)C1=C(c2ccccc2)c2ccc(OCCN3CCOCC3)cc2/C1=[N+](\C)[O-] [Compound 45, 1-(cis-methylimino-N-oxy)-6-(2-morpholine-4-ylethoxy)-3-phenyl-1H-indene-2-carboxylate ethyl ester]		151 to 152	
CC(C)OC(=O)C1=C(c2ccccc2)c2ccc(OCCN3CCOCC3)cc2/C1=[N+](\C)[O-] [Compound 101, 1-(cis-methylimino-N-oxy)-6-(2-morpholine-4-ylethoxy)-3-phenyl-1H-indene-2-carboxylate isopropyl ester]		153 to 155	
CC(C)NC(=O)C1=C(c2ccccc2)c2ccc(OCCCc3ccccc3)cc2/C1=[N+](/C)[O-] [Compound 38, 1-(trans-methylimino-N-oxy)-3-phenyl-6-(3-phenylpropoxy)-1H-indene-2-carboxylate isopropyl amide]	170		
C/[N+]([O-])=C1\C=C(c2ccccc2)c2ccc(OCCN3CCOCC3)cc21 [Compound 82, methyl-[6-(2-morpholine-4-ylethoxy)-3-phenylindene-1-yllidene]amine-N-oxide]		122 to 123	
CC(C)NC(=O)C1=C(c2ccccc2)c2ccc(OCCc3ccccn3)cc2/C1=[N+](/C)[O-] [Compound 80, 1-(trans-methylimino-N-oxy)-3-phenyl-6-(2-pyridine-2-ylethoxy)-1H-indene-2-carboxylate isopropyl amide]	100	124 to 126	
CCc1ccc(CCOc2ccc3c(c2)/C(=[N+](/C)[O-])C(C(=O)NC(C)C)=C3c2ccccc2)nc1 [Compound 81, 6-[2-(5-ethylpyridine-2-yl)ethoxy]-1-(trans-methylimino-N-oxy)-3-phenyl-1H-indene-2-carboxylate isopropyl amide]	45		
C/[N+]([O-])=C1\C(C(=O)NC2CCCCC2)=C(c2ccccc2)c2ccc(OCCCc3ccccc3)cc21 [Compound 39, 1-(trans-methylimino-N-oxy)-3-phenyl-6-(3-phenylpropoxy)-1H-indene-2-carboxylate cyclohexyl amide]	45		
CN(CCOc1ccc(CC2SC(=O)NC2=O)cc1)c1ccccn1 (stereo not shown) [Rosiglitazone, reference compound]			GOT [1]: 70 ± 8.2 karmen; GPT [1]: 85 ± 12/ karmen; Heart Weight [1]: 0.140 ± 0.009 g; Liver Weight [1]: 1.56 ± 0.18 g; Weight [1]: 39 ± 1.6 g
CCOC(=O)C1=C(c2ccccc2)c2ccc(COCCc3ccccc3)cc2/C1=[N+](/C)[O-] [Compound 43, 1-(trans-methylimino-N-oxy)-6-phenethyloxymethyl-3-phenyl-1H-indene-2-carboxylate ethyl ester]	80		
CCOC(=O)C1=C(c2ccccc2)c2ccc(OCCCCCc3ccccc3)cc2/C1=[N+](/C)[O-] [Compound 15, 1-(trans-methylimino-N-oxy)-3-phenyl-6-(5-phenylpentyloxy)-1H-indene-2-carboxylate ethyl ester]	150		
C/[N+]([O-])=C1\C(C(N)=O)=C(c2ccccc2)c2ccc(OCCCc3ccccc3)cc21 [Compound 73, 1-(trans-methylimino-N-oxy)-3-phenyl-6-(3-phenylpropoxy)-1H-indene-2-carboxylate amide]	110		
CCOC(=O)C1=C(c2ccccc2)c2ccc(CN3CCOCC3)cc2/C1=[N+](/C)[O-] [Compound 77, 1-(trans-methylimino-N-oxy)-6-morpholine-4-ylmethyl-3-phenyl-1H-indene-2-carboxylate ethyl ester]	170		
CCOC(=O)C1=C(C2CC2)c2ccc(OCCCc3ccccc3)cc2/C1=[N+](/C)[O-] [Compound 68, 3-cyclopropyl-1-(trans-methylimino-N-oxy)-6-(3-phenylpropoxy)-1H-indene-2-carboxylate ethyl ester]	10		
1-hydroxy-6-(2-morpholine-4-yl-ethoxy)-1,3-diphenyl-1H-indene-2-carboxylic acid ethyl ester [Example 8]			% Inhibition, Oral Glucose Tolerance Test (Blood Glucose) (ob/ob mice; ob/ob mice after 14 days oral administration, fasted 16 hrs, glucose 2 g/kg orally, total blood glucose over 120 minutes): 10.2%; % Inhibition, blood glucose, Intraperitoneal Administration (50 mg/kg/day) (ob/ob mice; ob/ob mice, i.p. 50 mg/kg once a day for 5 days, relative to control): 32.0%; % Inhibition, blood glucose, Oral Administration (100 mg/kg/day) (ob/ob mice; ob/ob mice, oral 100 mg/kg twice a day for 14 days, relative to control): 23.7%; effect in lowering blood glucose and insulin levels (C57/BL6J mice; administered orally or intraperitoneally, summary of Tables 6, 7 and 8): excellent effect in lowering both blood glucose and insulin levels; % Inhibition, Oral Glucose Tolerance Test (Glucose) (C57/BL6J mice; [2]): 23.8%; % Inhibition, Oral Glucose Tolerance Test (Insulin) (C57/BL6J mice; [2]): 56.2%; % Inhibition, Blood glucose concentration (C57/BL6J mice; [3]): 30.0%; % Inhibition, Blood insulin concentration (C57/BL6J mice; [3]): 44.6%; GOT [1]: 39 ± 7.8 karmen; GPT [1]: 29 ± 3.2/ karmen; Heart Weight [1]: 0.123 ± 0.007 g; Liver Weight [1]: 1.06 ± 0.17 g; Weight [1]: 35 ± 1.1 g; side effects (weight gain, hepatotoxicity, cardiotoxicity) ([1]; summary of Tables 6, 7 and 8): no side effects such as weight gain, hepatotoxicity or cardiotoxicity
CC(C)NC(=O)C1=C(c2csc3ccccc23)c2ccc(OCCN3CCOCC3)cc2/C1=[N+](/C)[O-] [Compound 94, 3-benzo-[b]-thiophene-3-yl-1-(trans-methylimino-N-oxy)-6-(2-morpholine-4-ylethoxy)-1H-indene-2-carboxylate isopropyl amide]	80	77 to 79	
CCOC(=O)C1=C(c2ccccc2)c2ccc(OCCc3ccc(CC)cn3)cc2/C1=[N+](/C)[O-] [Compound 79, 6-[2-(5-ethylpyridine-2-yl)ethoxy]-1-(trans-methylimino-N-oxy)-3-phenyl-1H-indene-2-carboxylate ethyl ester]	20		
CC(C)NC(=O)C1=C(c2ccccc2)c2cc(OCCN3CCOCC3)ccc2/C1=[N+](/C)[O-] [Compound 100, 1-(trans-methylimino-N-oxy)-5-(2-morpholine-4-ylethoxy)-3-phenyl-1H-indene-2-carboxylate isopropyl amide]		134 to 137	

Second part, led by results:

EC50 (human PPARγ) [nM]	melting point [°C]	Molecule	also measured
50		CCOC(=O)C1=C(c2ccccc2)c2ccc(OCCC3CCCCC3)cc2/C1=[N+](/C)[O-] [Compound 25, 6-(2-cyclohexylethoxy)-1-(trans-methylimino-N-oxy)-3-phenyl-1H-indene-2-carboxylate ethyl ester]	
	102 to 104	CCOC(=O)C1=C(c2ccccc2)c2ccc(OCCN3CCOCC3)cc2/C1=[N+](/C)[O-] [Compound 33, 1-(trans-methylimino-N-oxy)-6-(2-morpholine-4-ylethoxy)-3-phenyl-1H-indene-2-carboxylate ethyl ester]	
12		C/[N+]([O-])=C1\C(C(=O)NC2CCCCC2)=C(c2ccccc2)c2ccc(OCCN3CCOCC3)cc21 [Compound 41, 1-(trans-methylimino-N-oxy)-6-(2-morpholine-4-yl-ethoxy)-3-phenyl-1H-indene-2-carboxylate cyclohexyl amide]	
80		CCOC(=O)C1=C(c2ccccc2)c2cc(OCCCc3ccccc3)ccc2/C1=[N+](/C)[O-] [Compound 42, 1-(trans-methylimino-N-oxy)-3-phenyl-5-(3-phenylpropoxy)-1H-indene-2-carboxylate ethyl ester]	
95	126 to 128	C/[N+]([O-])=C1\C(C#N)=C(c2ccccc2)c2ccc(OCCCc3ccccc3)cc21 [Compound 75, 1-(trans-methylimino-N-oxy)-3-phenyl-6-(3-phenylpropoxy)-1H-indene-2-carbonitrile]	
10	119 to 121	CCOC(=O)C1=C(c2ccccc2)c2cc3c(cc2/C1=[N+](/C)[O-])OCO3 [Compound 48, 1-(trans-methylimino-N-oxy)-5,6-methylenedioxy-1-oxo-3-phenyl-1H-indene-2-carboxylate ethyl ester]	
25	79 to 81	CC(C)OC(=O)C1=C(c2ccccc2)c2ccc(OCCN3CCOCC3)cc2/C1=[N+](/C)[O-] [Compound 8]	
	158 to 159	CC(C)NC(=O)C1=C(c2ccccc2)c2cc(OCCc3ccccn3)ccc2/C1=[N+](/C)[O-] [Compound 99, 1-(trans-methylimino-N-oxy)-3-phenyl-5-(2-pyridine-2-ylethoxy)-1H-indene-2-carboxylate isopropyl amide]	
200	123 to 125	CC(C)NC(=O)C1=C(c2ccccc2)c2ccc(OCCN3CCOCC3)cc2/C1=[N+](/C)[O-] [Compound 50, 1-(trans-methylimino-N-oxy)-6-(2-morpholine-4-ylethoxy)-3-phenyl-1H-indene-2-carboxylate isopropyl amide]	
